The IC50 is the midpoint of a concentration-inhibition curve. Low values mean inhibition by little substance, high ones a need for much substance.

Structures are written as SMILES.

Alpha-glucosidase MAL12, sequence (P53341 whole entry): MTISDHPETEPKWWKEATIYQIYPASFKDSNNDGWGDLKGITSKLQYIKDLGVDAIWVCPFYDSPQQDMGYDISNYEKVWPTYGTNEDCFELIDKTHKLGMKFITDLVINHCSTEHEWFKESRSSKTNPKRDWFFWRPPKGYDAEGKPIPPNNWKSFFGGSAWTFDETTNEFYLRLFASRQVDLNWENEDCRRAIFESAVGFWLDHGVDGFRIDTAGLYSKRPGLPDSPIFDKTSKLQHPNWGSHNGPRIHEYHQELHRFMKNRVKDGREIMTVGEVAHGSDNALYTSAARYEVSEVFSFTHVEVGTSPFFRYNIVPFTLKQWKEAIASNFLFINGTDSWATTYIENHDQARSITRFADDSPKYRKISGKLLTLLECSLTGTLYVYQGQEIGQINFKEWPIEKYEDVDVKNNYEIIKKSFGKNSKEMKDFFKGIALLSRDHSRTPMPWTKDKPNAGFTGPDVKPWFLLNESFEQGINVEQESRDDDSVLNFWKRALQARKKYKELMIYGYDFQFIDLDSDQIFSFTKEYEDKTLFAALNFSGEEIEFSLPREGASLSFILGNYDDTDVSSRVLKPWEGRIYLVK

The test concerns the target Alpha-glucosidase MAL12 (Saccharomyces cerevisiae (strain ATCC 204508 / S288c), UniProt P53341). In words: Assay for α-Glucosidase Inhibitory Activity. The protocol:
The 135 µL of 50 mM phosphate saline buffer pH (6.8), solution of enzyme (20 µL), and 20 µL of test sample with 70% DMSO was added to 96-well plate. The samples were incubated for 15 min. Pre-read of the plate was taken after incubation using SpectraMax. substrate (pNPG) (25 µL) was added before final reading was takenat 400 nm on Spectra Max.
Turning to `Cc1cccc2nc(-c3cccc(O)c3O)[nH]c12` [2-(2',3'-Dihydroxyphenyl)-7-methyl-1H-benzo[d]imidazole (15)], inhibition was half-maximal at 85.6 µM (IC50).

Turning to `Cc1cccc2nc(-c3ccc(O)cc3O)[nH]c12` [2-(2',4'-Dihydroxyphenyl)-7-methyl-1H-benzo[d]imidazole (2)], the midpoint of inhibition, the IC50, lay at 60.9 µM.

`Cc1cccc2nc(-c3ccccc3Cl)[nH]c12` [2-(2'-Chlorophenyl)-7-methyl-1H-benzo[d]imidazole (25)] registered an IC50 of 5.3 µM. Compared with the last molecule, the IC50 is about 11-fold lower.

`Cc1cccc2nc(-c3ccccc3F)[nH]c12` [2-(2'-Fluorophenyl)-7-methyl-1H-benzo[d]imidazole (8)]: the IC50 stood at 34.4 µM. This IC50 is about 6.5-fold higher than that of the molecule before.

In the case of `COc1ccc(-c2nc3cccc(C)c3[nH]2)c(O)c1` [2-(2'-Hydroxy-4'-methoxyphenyl)-7-methyl-1H-benzo[d]imidazole (20)], 29.8 µM corresponded to half-maximal inhibition (IC50).

For the molecule `COc1ccc(O)c(-c2nc3cccc(C)c3[nH]2)c1` [2-(2'-Hydroxy-5'-methoxyphenyl)-7-methyl-1H-benzo[d]imidazole (14)], the IC50 came to 45.2 µM.

The molecule `Cc1cccc2nc(-c3ccccc3O)[nH]c12` [2-(2'-Hydroxyphenyl)-7-methyl-1H-benzo[d]imidazole (19)] came in with an IC50 of 16.1 µM. This IC50 is about 2.8-fold lower than that of the molecule before.

Molecule `Cc1cccc2nc(-c3ccccc3[N+](=O)[O-])[nH]c12` [2-(2'-Nitrophenyl)-7-methyl-1H-benzo[d]imidazole (7)] yielded an IC50 of 44.6 µM.

Turning to `Cc1cccc2nc(-c3ccc(O)c(O)c3)[nH]c12` [2-(3',4'-Dihydroxyphenyl)-7-methyl-1H-benzo[d]imidazole (10)], 25.4 µM corresponded to half-maximal inhibition (IC50).

`Cc1cccc2nc(-c3cccc(F)c3)[nH]c12` [2-(3'-Fluorophenyl)-7-methyl-1H-benzo[d]imidazole (9)] gave a half-inhibitory concentration (IC50) of 165 µM.

Molecule `COc1ccc(-c2nc3cccc(C)c3[nH]2)cc1O` [2-(3'-Hydroxy-4'-methoxyphenyl)-7-methyl-1H-benzo[d]imidazole (21)] returned an IC50 of 226 µM.

Molecule `Cc1cccc2nc(-c3cccc(O)c3)[nH]c12` [2-(3'-Hydroxyphenyl)-7-methyl-1H-benzo[d]imidazole (18)] gave an IC50 of 326 µM.

Molecule `Cc1cccc2nc(-c3ccc(Cl)cc3)[nH]c12` [2-(4'-Chlorophenyl)-7-methyl-1H-benzo[d]imidazole (27)] yielded an IC50 of 145 µM.

Regarding `Cc1cccc2nc(-c3ccc(F)cc3)[nH]c12` [2-(4'-Fluorophenyl)-7-methyl-1H-benzo[d]imidazole (16)], the IC50 was determined as 136 µM.

As to `Cc1cccc2nc(-c3ccc(O)cc3)[nH]c12` [2-(4'-Hydroxyphenyl)-7-methyl-1H-benzo[d]imidazole (17)], the IC50 stood at 95.6 µM.

The molecule `Cc1cccc2nc(-c3cc(O)ccc3O)[nH]c12` [2-(20,50-Dihydroxyphenyl)-7-methyl-1H-benzo[d]imidazole (13)] displayed an IC50 of 125 µM.

`Cc1cccc2nc(-c3ccncc3)[nH]c12` [7-Methyl-2-(pyridin-4'-yl)-1H-benzo[d]imidazole (24)] displayed an IC50 of 726 µM.

Source of the values: BindingDB's records for doi:10.1016/j.bioorg.2016.02.004 (Universiti Teknologi Mara (Uitm), Puncak Alam Campus, 2016).
